Data: patent publication US8871753B2, “Macrocyclic compounds and their use as kinase inhibitors” (Incyte Corporation, priority 2008, dated 2014)
Where a name gives a salt, the structure may show the parent alone. Read-outs that look alike come from different tables or passages of the source.

Assays:
Type in all cases: biochemical
[1] = molecular target: T1, human JAK1 (a.a. 837-1142) (Homo sapiens, UniProt P23458); assay: In vitro JAK kinase assay (HTRF, phosphorylation of a biotinylated peptide), JAK1; details: read-out: JAK1 IC50
T1 construct: human JAK1 (a.a. 837-1142); His tag (N); made in house; host or cells: insect cells (baculovirus)
T1 sequence (P23458 849-1154): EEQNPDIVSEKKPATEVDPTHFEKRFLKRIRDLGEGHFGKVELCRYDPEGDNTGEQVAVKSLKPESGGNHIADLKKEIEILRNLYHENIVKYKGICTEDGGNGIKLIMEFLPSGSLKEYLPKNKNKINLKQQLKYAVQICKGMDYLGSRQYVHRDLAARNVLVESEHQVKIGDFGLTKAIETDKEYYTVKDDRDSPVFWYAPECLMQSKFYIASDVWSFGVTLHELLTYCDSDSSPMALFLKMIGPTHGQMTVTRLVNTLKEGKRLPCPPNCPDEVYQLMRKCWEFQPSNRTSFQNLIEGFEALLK
Summary of the method: (§1)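 Kinase activity was measured as phosphorylation of a biotinylated peptide, with ATP at 90 μM for JAK1, 30 μM for JAK2 and 3 μM for JAK3. Reactions ran 1 hr at room temperature, were stopped with EDTA plus SA-APC and Eu-Py20, and were read by HTRF after 40 minutes of antibody binding.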

[2] = molecular target: T2, Recombinant Human Anaplastic Lymphoma Kinase (Homo sapiens, UniProt Q9UM73); assay: ALK HTRF kinase assay
T2 construct: purchased Invitrogen, Carlsbad, Calif
T2 sequence (Q9UM73 19-1620): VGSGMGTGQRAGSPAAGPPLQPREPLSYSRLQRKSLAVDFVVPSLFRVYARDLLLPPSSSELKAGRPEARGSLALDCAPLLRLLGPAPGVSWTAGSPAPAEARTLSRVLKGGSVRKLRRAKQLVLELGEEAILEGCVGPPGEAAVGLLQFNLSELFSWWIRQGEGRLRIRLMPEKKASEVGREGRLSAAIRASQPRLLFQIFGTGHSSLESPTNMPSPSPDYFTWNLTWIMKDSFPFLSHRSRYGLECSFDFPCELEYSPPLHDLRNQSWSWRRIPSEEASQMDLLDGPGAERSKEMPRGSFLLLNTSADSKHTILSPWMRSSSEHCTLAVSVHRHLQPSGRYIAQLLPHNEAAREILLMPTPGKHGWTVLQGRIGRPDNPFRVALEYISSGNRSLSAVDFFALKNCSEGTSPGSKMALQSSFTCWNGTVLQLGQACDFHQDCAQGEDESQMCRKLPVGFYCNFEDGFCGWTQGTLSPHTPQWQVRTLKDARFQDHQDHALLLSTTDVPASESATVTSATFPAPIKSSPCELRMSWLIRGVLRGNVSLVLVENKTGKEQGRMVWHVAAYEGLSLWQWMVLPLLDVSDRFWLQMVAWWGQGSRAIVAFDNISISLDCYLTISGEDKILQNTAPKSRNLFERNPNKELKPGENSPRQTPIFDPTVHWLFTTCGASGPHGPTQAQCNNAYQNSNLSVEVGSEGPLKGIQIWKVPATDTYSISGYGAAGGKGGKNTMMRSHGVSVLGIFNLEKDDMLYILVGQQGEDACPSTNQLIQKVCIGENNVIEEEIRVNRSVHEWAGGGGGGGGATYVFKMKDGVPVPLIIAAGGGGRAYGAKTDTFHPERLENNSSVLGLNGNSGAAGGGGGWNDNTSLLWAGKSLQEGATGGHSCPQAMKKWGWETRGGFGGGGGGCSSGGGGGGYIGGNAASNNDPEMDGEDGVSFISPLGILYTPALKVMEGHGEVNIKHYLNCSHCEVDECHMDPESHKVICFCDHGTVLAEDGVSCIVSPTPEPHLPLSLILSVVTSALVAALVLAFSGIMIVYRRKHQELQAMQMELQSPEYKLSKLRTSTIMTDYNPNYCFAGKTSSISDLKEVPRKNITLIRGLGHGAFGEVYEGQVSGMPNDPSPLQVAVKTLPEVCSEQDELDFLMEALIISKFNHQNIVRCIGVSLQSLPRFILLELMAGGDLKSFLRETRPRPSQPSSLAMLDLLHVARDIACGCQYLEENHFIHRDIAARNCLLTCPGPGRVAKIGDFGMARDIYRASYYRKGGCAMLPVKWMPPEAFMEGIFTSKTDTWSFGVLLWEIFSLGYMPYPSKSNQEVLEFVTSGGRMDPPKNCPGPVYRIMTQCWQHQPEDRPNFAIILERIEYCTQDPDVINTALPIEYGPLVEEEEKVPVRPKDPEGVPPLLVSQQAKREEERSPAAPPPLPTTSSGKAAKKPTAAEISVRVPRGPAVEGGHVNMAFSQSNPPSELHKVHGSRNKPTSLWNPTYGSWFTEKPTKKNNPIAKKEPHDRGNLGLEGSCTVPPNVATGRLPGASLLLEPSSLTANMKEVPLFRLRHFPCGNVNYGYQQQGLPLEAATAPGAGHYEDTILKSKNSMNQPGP
Summary of the method: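 IC50 was obtained from a logistic fit of signal versus log inhibitor concentration, using pre- and post-transition baselines and a Hill slope. The signal reported tyrosine phosphorylation of a biotinylated peptide by recombinant human kinase, detected as Eu-to-APC energy transfer.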

[3] = molecular target: T3, human JAK2 (a.a. 828-1132) (Homo sapiens, UniProt O60674); assay: In vitro JAK kinase assay (HTRF, phosphorylation of a biotinylated peptide), JAK2
T3 construct: JAK2 (a.a. 828-1132); His tag (N); made in house; host or cells: insect cells (baculovirus)
T3 sequence (O60674 828-1132): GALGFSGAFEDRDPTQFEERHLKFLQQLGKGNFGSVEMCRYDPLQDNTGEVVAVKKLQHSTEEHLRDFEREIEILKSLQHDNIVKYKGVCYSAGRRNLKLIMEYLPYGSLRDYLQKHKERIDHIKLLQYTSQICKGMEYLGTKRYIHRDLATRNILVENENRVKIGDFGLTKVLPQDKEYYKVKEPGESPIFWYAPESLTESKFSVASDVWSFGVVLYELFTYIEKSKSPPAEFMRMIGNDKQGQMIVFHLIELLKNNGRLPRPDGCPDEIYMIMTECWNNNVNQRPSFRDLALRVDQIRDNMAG
Summary of the method: as §1

[4] = molecular target: T4, human JAK3 (a.a. 781-1124) (Homo sapiens, UniProt P52333); assay: In vitro JAK kinase assay (HTRF, phosphorylation of a biotinylated peptide), JAK3
T4 construct: JAK3 (a.a. 781-1124); His tag (N); made in house; host or cells: insect cells (baculovirus)
T4 sequence (P52333 781-1124): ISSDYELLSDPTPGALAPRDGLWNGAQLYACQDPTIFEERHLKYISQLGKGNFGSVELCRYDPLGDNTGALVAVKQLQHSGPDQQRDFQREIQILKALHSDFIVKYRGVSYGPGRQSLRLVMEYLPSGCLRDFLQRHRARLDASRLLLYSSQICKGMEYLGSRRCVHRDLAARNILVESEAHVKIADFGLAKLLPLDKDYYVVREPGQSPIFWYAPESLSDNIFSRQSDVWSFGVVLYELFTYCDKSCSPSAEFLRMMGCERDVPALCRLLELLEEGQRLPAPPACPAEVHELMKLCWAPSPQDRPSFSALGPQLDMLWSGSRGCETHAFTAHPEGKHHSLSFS
Summary of the method: as §1

TYK2 = TYK2 (Homo sapiens, UniProt P29597); assay: TYK2 kinase inhibition (Table A1)
TYK2, sequence (P29597 whole entry): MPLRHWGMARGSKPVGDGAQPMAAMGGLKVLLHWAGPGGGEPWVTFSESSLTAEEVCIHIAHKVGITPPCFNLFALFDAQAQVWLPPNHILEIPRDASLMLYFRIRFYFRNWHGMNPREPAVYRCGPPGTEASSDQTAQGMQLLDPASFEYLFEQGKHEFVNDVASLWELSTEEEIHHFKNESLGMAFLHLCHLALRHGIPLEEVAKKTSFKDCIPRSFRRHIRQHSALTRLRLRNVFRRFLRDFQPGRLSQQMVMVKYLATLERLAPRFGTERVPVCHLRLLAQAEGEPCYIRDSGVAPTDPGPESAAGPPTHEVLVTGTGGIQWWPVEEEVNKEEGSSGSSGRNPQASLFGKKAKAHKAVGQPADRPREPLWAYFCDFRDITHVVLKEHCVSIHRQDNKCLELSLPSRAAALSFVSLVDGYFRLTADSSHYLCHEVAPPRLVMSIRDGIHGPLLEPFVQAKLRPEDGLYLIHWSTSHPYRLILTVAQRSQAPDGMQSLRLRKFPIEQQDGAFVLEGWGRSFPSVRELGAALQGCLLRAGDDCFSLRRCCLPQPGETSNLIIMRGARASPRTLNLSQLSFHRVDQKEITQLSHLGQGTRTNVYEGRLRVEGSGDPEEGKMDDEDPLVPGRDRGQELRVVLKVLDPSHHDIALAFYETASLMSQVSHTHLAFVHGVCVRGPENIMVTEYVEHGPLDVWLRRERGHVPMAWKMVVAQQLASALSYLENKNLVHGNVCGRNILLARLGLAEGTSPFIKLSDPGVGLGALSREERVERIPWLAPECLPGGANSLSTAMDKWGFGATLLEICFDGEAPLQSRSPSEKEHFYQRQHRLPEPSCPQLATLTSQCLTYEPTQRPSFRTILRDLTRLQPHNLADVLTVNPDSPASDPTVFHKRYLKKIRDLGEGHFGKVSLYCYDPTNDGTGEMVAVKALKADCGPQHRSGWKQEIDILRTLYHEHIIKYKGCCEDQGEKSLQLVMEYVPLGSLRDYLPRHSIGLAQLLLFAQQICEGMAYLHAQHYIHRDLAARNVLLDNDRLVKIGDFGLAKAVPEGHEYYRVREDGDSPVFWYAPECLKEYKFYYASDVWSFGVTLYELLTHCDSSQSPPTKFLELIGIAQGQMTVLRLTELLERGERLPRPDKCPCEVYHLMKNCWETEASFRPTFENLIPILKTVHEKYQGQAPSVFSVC

[5] = method AA1 (90 μM ATP) or AA2 (1000 μM ATP), not stated per value
[6] = compound at 500 nM or 1 mM, 90 μM ATP
[7] = method AA1 (30 μM ATP) or AA2 (1000 μM ATP), not stated per value
[8] = method AA1 (3 μM ATP) or AA2 (1000 μM ATP), not stated per value
[9] = Table B1, cells without percent sign
[10] = compound at a concentration of 500 nM or 1 mM (not specified), cells shown as percentage

Row | Structure (SMILES) | IC50 [1, 5] [nM] | ALK % of inhibition at a concentration of 500 nM or 1 mM [2, 6] [%] | IC50 [3, 7] [nM] | IC50 [4, 8] [nM] | IC50 (TYK2) [nM] | IC50 ([1]; Table B1) [nM] | IC50 ([3]; Table B1) [nM] | IC50 ([4]; Table B1) [nM] | IC50 (TYK2; Table B1) [nM] | other results
1 | O=C(CC1CCN(c2nncs2)CC1)Nc1ccc2cc1CCc1cccc(c1)Nc1ncc(Cl)c(n1)N2 [Example A183, N-[6-Chloro-2,4,8,22-tetraazatetracyclo[14.3.1.1(3,7).1(9,13)]docosa-1(20),3(22),4,6,9(21),10,12,16,18-nonaen-12-yl]-2-[1-(1,3,4-thiadiazol-2-yl)piperidin-4-yl]acetamide bis(trifluoroacetate)] | 3.6 | 40 | 22 | > 200 | 30 |  |  |  |  | 
2 | O=C(NCc1ccccc1)N1CCN(c2cc(-c3cc4cc(c3)Nc3ncc(Cl)c(n3)Nc3cccc(c3)OCC4)ccn2)CC1 [Example D45, N-Benzyl-4-{4-[6-chloro-14-oxa-2,4,8,23-tetraazatetracyclo[15.3.1.1(3,7).1(9,13)]tricosa-1(21),3(23),4,6,9(22),10,12,17,19-nonaen-19-yl]pyridin-2-yl}piperazine-1-carboxamide bis(trifluoroacetate)] |  |  |  |  |  |  |  |  |  | IC50 ([1]; Table D1): 8.1 nM; IC50 ([2]; Table D1, 90 μM ATP): 340 nM; IC50 ([3]; Table D1): 3 nM; IC50 ([4]; Table D1): 36 nM; IC50 (TYK2; Table D1): 13 nM
3 | O=C(Nc1ccc2cc1CCc1cccc(c1)Nc1ncc(Cl)c(n1)N2)[C@@H]1CCCN1 [Example A110, (2S)—N-[6-Chloro-2,4,8,22-tetraazatetracyclo[14.3.1.1(3,7).1(9,13)]docosa-1(20),3(22),4,6,9(21),10,12,16,18-nonaen-12-yl]pyrrolidine-2-carboxamide bis(trifluoroacetate)] | 32 | 45 | 26 | 14 | 15 |  |  |  |  | 
4 | CCC(=O)N1CCC(CC(=O)Nc2ccc3cc2CCc2cncc(c2)Nc2ncc(Cl)c(n2)N3)CC1 [Example A104, N-[6-Chloro-2,4,8,18,22-pentaazatetracyclo[14.3.1.1(3,7).1(9,13)]docosa-1(20),3(22),4,6,9(21),10,12,16,18-nonaen-12-yl]-2-(1-propionylpiperidin-4-yl)acetamide bis(trifluoroacetate)] | 81 | 26 | 8.3 | 148 | 4.4 |  |  |  |  | 
5 | N#Cc1ccc(S(=O)(=O)N2CCC(CC(=O)Nc3ccc4cc3CCc3cncc(c3)Nc3ncc(Cl)c(n3)N4)CC2)cc1 [Example A199, N-[6-Chloro-2,4,8,18,22-pentaazatetracyclo[14.3.1.1(3,7).1(9,13)]docosa-1(20),3(22),4,6,9(21),10,12,16,18-nonaen-12-yl]-2-{1-[(4-cyanophenyl)sulfonyl]piperidin-4-yl}acetamide bis(trifluoroacetate)] | 32 | 41 | 199 | > 200 | > 200 |  |  |  |  | 
6 | O=C(CC1CCN(C(=O)c2cccnc2)CC1)Nc1ccc2cc1CCc1cccc(c1)Nc1ncc(Cl)c(n1)N2 [Example A184, N-[6-Chloro-2,4,8,22-tetraazatetracyclo[14.3.1.1(3,7).1(9,13)]docosa-1(20),3(22),4,6,9(21),10,12,16,18-nonaen-12-yl]-2-[1-(pyridin-3-ylcarbonyl)piperidin-4-yl]acetamide bis(trifluoroacetate)] | 43 | 29 | 79 | > 200 | > 200 |  |  |  |  | 
7 | O=C(Nc1ccc2cc1CCc1cccc(c1)Nc1ncc(Cl)c(n1)N2)C1CCCN(C(=O)NC2CCCC2)C1 (centres unmarked) [Example A62, N(3)-[6-Chloro-2,4,8,22-tetraazatetracyclo[14.3.1.1(3,7).1(9,13)]docosa-1(20),3(22),4,6,9(21),10,12,16,18-nonaen-12-yl]-N(1)-cyclopentylpiperidine-1,3-dicarboxamide trifluoroacetate] | 7 | 26 | 5.6 | 9.1 | 12 |  |  |  |  | 
8 | O=C(CC1CCNCC1)Nc1ccc2cc1CCc1cncc(c1)Nc1ncc(Cl)c(n1)N2 [Example A71, N-[6-Chloro-2,4,8,18,22-pentaazatetracyclo[14.3.1.1(3,7).1(9,13)]docosa-1(20),3(22),4,6,9(21),10,12,16,18-nonaen-12-yl]-2-piperidin-4-ylacetamide tris(trifluoroacetate)] | 19 | 26 | 69 | 112 | 57 |  |  |  |  | 

The next lines start with results.

Row | IC50 [1, 5] [nM] | ALK % of inhibition at a concentration of 500 nM or 1 mM [2, 6] [%] | IC50 [3, 7] [nM] | IC50 [4, 8] [nM] | IC50 (TYK2) [nM] | IC50 ([1]; Table B1) [nM] | IC50 ([3]; Table B1) [nM] | IC50 ([4]; Table B1) [nM] | IC50 (TYK2; Table B1) [nM] | Structure (SMILES) | other results
9 |  |  |  |  | > 1000 |  |  |  |  | O=C1Nc2cccc(c2)Nc2nc(ncc2Cl)Nc2cccc1c2 [Example C2, 6-Chloro-2,4,8,14,22-pentaazatetracyclo[14.3.1.1(3,7).1(9,13)]docosa-1(20),3(22),4,6,9(21),10,12,16,18-nonaen-15-one hydrochloride] | IC50 [1]: > 1000 nM; IC50 [2]: > 1000 nM; IC50 [3]: > 1000 nM; IC50 [4]: > 1000 nM
10 |  |  |  |  |  | 900 | 171 | 682 | > 1000 | O=C(Nc1cccc(Cl)c1)c1cc2cc(c1)Nc1nc(ncc1Cl)Nc1cccc(c1)CC2 [Example B13, 6-Chloro-N-(3-chlorophenyl)-2,4,8,22-tetraazatetracyclo[14.3.1.1(3,7).1(9,13)]docosa-1(20),3(22),4,6,9(21),10,12,16,18-nonaene-11-carboxamide trifluoroacetate] | IC50 [2, 9]: > 1000 nM
11 |  |  |  |  |  | 60 | 192 | > 10000 | 325 | Cc1noc(C)c1C(=O)N1CC[C@H](NC(=O)Nc2ccc3cc2CCc2cncc(c2)Nc2ncc(Cl)c(n2)N3)C1 [Example B274, N-[6-chloro-2,4,8,18,22-pentaazatetracyclo[14.3.1.1(3,7).1(9,13)]docosa-1(20),3(22),4,6,9(21),10,12,16,18-nonaen-12-yl]-N′-{(3S)-1-[(3,5-dimethylisoxazol-4-yl)carbonyl]pyrrolidin-3-yl}urea bis(trifluoroacetate)] | ALK % of inhibition at a concentration of 500 nM or 1 mM [2, 10]: 18%
12 |  |  |  |  |  | 0.1 | 0.1 | 0.1 | 0.14 | NS(=O)(=O)Nc1ccc2cc1CCc1cccc(c1)Nc1ncc(Cl)c(n1)N2 [Example B184, N-[6-Chloro-2,4,8,22-tetraazatetracyclo[14.3.1.1(3,7).1(9,13)]docosa-1(20),3(22),4,6,9(21),10,12,16,18-nonaen-12-yl]sulfamide trifluoroacetate] | ALK % of inhibition at a concentration of 500 nM or 1 mM [2, 10]: 82%
13 |  |  |  |  |  | 20 | 170 | > 400 | 146 | N#Cc1cccnc1N1CCN(C(=O)Nc2ccc3cc2CCc2cncc(c2)Nc2ncc(Cl)c(n2)N3)CC1 [Example B311, N-[6-Chloro-2,4,8,18,22-pentaazatetracyclo[14.3.1.1(3,7).1(9,13)]docosa-1(20),3(22),4,6,9(21),10,12,16,18-nonaen-12-yl]-4-(3-cyanopyridin-2-yl)piperazine-1-carboxamide tris(trifluoroacetate)] | ALK % of inhibition at a concentration of 500 nM or 1 mM ([2]; percentage inhibition of the example compound at a concentration of 500 nM or 1 mM (not specified which)): 67%
14 |  |  |  |  |  | 13 | 26 | 91 | 38 | CCc1ccc(NC(=O)Nc2ccc3cc2CCc2cccc(c2)Nc2ncc(Cl)c(n2)N3)cc1 [Example B98, N-[6-Chloro-2,4,8,22-tetraazatetracyclo[14.3.1.1(3,7).1(9,13)]docosa-1(20), 3(22),4,6,9(21),10,12,16,18-nonaen-12-yl]-N′-(4-ethylphenyl)urea trifluoroacetate] | ALK % of inhibition at a concentration of 500 nM or 1 mM [2, 10]: 41%
15 |  |  |  |  |  | 1.3 | 0.97 | 7.5 | 2.5 | Nc1ccc2cc1CCc1cccc(c1)Nc1ncc(Cl)c(n1)N2 [Example B19, 6-Chloro-2,4,8,22-tetraazatetracyclo[14.3.1.1(3,7).1(9,13)]docosa-1(20),3(22),4,6,9(21),10,12,16,18-nonaen-12-amine dihydrochloride] | IC50 [2, 9]: 610 nM
16 |  |  |  |  |  | > 1000 | 91 | > 1000 | > 1000 | O=S(=O)(c1ccc(Cl)cc1)c1ccc(CN2CCN(Cc3cc4cc(c3)Nc3nc(ncc3Cl)Nc3cccc(c3)CC4)CC2)cc1 [Example B195, 6-Chloro-11-[(4-{4-[(4-chlorophenyl)sulfonyl]benzyl}piperazin-1-yl)methyl]-2,4,8,22-tetraazatetracyclo[14.3.1.1(3,7).1(9,13)]docosa-1(20),3(22),4,6,9(21),10,12,16,18-nonaene tris(trifluoroacetate)] | IC50 [2, 9]: > 10000 nM
